Data: patent publication US20130035326A1 (AMBIT BIOSCIENCES CORPORATION, priority 2009, published 2013)
“And” between values parts separate entries of the source, which are not always exact repeats. Identical values can stand only once.

Legend:
FLT3 kinase = molecular target: T1, FLT3 kinase (Homo sapiens, UniProt P36888); assay: Competition binding assay, FLT3 Kd
T1 construct: made in house; host or cells: T7 phage display or HEK-293 cells
T1 sequence (P36888 27-993): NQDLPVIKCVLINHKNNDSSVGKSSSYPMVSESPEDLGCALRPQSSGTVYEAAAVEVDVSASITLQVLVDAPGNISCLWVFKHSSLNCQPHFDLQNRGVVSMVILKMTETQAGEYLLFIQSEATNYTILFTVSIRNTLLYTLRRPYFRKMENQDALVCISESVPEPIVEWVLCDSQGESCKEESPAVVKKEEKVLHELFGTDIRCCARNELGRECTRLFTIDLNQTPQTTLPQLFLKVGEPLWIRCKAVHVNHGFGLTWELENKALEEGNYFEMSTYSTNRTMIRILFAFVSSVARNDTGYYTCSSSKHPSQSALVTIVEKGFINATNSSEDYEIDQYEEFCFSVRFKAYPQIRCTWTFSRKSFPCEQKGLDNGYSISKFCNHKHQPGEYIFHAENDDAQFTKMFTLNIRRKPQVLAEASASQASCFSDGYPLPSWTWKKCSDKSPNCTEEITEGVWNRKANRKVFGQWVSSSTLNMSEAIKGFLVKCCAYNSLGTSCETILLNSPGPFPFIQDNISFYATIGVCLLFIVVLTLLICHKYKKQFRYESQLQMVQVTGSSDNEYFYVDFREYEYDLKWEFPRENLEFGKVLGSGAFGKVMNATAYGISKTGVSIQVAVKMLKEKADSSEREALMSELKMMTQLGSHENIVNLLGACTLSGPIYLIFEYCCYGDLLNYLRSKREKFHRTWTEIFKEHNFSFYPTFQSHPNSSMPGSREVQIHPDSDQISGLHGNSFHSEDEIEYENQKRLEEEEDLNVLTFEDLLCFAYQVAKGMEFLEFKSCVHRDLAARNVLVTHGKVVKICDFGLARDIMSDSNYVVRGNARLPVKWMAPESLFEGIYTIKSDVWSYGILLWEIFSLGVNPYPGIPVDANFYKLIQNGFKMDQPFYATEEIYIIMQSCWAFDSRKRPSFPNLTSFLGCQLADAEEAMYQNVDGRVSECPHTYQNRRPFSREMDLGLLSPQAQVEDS
How it was run: (§1)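 Readout: qPCR of kinase eluted from ligand-coated beads. T7 phage-fused or HEK-293-expressed DNA-tagged kinase, 1 h RT equilibration with compound; Kd from 11-pt 3-fold series.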

CSF-1R kinase = molecular target: T2, CSF-1R kinase (Homo sapiens, UniProt P07333); assay: Competition binding assay, CSF-1R Kd
T2 construct: made in house; host or cells: T7 phage display or HEK-293 cells
How it was run: as §1

KIT kinase = molecular target: T3, KIT kinase (Homo sapiens, UniProt P10721); assay: Competition binding assay, KIT Kd
T3 construct: made in house; host or cells: T7 phage display or HEK-293 cells
How it was run: as §1

[1] = molecular target: kinase panel containing either 359 or 386 distinct kinases; assay: Selectivity score S10 from competition binding against a panel of kinases; details: compounds at 10 μM; for Kinase specificty: S(10)-359 panel: panel of 359 distinct kinases
Method: Competition binding assays used herein were developed, validated and performed as described in Fabian et al., Nature Biotechnology 2005, 23,329-336. Kinases were produced as fusions to T7 phage (See, Fabian et al. or WO04/015142) or alternatively, the kinases were expressed in HEK-293 cells and subsequently tagged with DNA for PCR detection (See, WO08/005,310). For the binding assays, streptavidin-coated magnetic beads were treated with biotinylated affinity ligands for 30 min at room temperature to generate affinity resins. The liganded beads were blocked with excess biotin and washed with blocking buffer (SeaBlock (Pierce), 1% BSA, 0.05% Tween 20, 1 mM DTT) to remove unbound ligand and to reduce non-specific binding. Binding reactions were assembled by combining kinase, liganded affinity beads, and test compounds in 1× binding buffer (20% SeaBlock, 0.17×PBS, 0.05% Tween 20, 6 mM DTT). Test compounds were prepared as 100× stocks in DMSO and diluted into the aqueous environment. Kds were determined using an eleven point threefold serial dilutions. DMSO or control compounds were was added to control assays lacking a test compound. Primary screen assays were performed in polypropylene 384-well plates in a final volume of 20-40 μL, while Kd determinations were performed in polystyrene 96-well plates in a final volume of 135 μL. The assay plates were incubated at room temperature with shaking for 1 hour to allow the binding reactions to reach equilibrium, and the affinity beads were washed extensively with wash buffer (1×PBS, 0.05% Tween 20) to remove unbound protein. The beads were then resuspended in elution buffer (1×PBS, 0.05% Tween 20, 0.5 μM non-biotinylated affinity ligand) and incubated at room temperature with shaking for 30 min. The kinase concentration in the eluates was measured by quantitative PCR.
A selectivity score (S10) is a quantitative measure of selectivity of a compound against a panel of kinases. An S10 was calculated for a compound by dividing the number of kinases found to have a percent of control (DMSO) less than 10 by the total number of distinct kinases tested (excluding mutant variants). Percent of control (POC) is calculated by subtracting the signal of the control compound (POC=0) from the signal of the test compound and dividing the outcome by the signal of DMSO (POC=100) minus the signal of the control compound. For the compounds disclosed herein, S10 scores were obtained by testing the compounds at 10 μM concentration in a kinase panel containing either 359 or 386 distinct kinases.

MV4-11 cells = assay: MV4-11 cell proliferation assay (Alamar Blue); assay type: cell-based; details: Homo sapiens, MV4-11, 72 h, 3 days incubation
How it was run: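 Flt3-ITD MV4-11 cells were serum-starved overnight in Iscove's with 0.5% FBS, then given compound at 9 half-log concentrations (0.5% DMSO) for 3 days at 37° C. Alamar Blue reduction was read after 3 h by fluorescence (560/590 nm). IC50 is the mean of duplicates versus negative control.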

T3 sequence (P10721 26-976): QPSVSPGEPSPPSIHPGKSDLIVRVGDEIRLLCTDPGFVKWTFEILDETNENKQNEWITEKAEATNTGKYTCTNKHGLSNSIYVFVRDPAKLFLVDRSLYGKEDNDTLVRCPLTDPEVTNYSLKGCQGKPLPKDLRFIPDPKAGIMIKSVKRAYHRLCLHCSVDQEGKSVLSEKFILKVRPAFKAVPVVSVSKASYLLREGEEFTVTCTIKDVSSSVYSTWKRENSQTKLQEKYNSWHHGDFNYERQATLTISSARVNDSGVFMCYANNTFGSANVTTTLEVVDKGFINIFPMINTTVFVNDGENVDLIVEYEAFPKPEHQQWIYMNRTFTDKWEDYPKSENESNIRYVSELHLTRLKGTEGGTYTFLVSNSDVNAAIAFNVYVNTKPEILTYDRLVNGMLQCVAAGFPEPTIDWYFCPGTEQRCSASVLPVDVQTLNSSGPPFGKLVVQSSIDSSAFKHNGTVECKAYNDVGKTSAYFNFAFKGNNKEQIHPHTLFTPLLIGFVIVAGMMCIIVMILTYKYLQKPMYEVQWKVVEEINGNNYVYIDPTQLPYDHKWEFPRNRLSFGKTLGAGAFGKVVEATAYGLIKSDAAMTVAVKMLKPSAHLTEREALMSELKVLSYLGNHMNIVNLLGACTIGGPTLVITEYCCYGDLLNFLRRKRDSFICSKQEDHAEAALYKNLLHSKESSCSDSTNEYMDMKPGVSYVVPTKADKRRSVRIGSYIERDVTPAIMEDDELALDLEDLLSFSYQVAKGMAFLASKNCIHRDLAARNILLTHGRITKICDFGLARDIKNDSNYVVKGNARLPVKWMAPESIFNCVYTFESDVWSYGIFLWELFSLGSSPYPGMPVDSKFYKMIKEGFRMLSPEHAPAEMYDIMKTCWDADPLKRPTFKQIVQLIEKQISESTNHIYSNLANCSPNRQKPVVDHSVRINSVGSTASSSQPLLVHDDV
T2 sequence (P07333 20-972): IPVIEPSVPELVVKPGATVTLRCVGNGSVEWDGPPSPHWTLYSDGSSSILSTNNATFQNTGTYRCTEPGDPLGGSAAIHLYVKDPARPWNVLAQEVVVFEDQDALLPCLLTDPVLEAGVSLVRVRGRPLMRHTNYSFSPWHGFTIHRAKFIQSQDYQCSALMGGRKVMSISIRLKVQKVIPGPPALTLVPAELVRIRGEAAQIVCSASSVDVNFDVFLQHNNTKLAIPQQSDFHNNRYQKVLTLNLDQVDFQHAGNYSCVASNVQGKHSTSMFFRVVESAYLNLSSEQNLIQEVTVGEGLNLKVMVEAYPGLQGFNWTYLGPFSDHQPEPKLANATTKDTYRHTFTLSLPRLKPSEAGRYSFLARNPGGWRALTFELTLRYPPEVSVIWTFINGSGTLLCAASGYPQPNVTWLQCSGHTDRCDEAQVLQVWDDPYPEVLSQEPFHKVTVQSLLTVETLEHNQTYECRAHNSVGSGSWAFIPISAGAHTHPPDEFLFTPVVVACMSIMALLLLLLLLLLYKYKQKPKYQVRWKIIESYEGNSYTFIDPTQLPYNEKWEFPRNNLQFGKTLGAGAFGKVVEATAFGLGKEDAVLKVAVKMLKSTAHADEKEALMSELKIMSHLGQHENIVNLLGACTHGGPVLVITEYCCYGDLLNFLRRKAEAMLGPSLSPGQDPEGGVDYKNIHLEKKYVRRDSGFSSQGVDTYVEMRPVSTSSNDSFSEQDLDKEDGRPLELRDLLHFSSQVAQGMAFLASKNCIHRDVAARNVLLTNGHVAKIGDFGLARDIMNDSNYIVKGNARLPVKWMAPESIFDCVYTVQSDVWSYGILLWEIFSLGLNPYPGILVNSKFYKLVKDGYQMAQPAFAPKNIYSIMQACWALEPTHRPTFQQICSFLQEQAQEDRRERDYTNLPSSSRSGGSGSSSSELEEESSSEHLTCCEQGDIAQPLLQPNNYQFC

Structure (SMILES) | Kd (FLT3 kinase) | Kd (CSF-1R kinase) | Kd (KIT kinase) | Kinase specificty: S(10)-359 panel [1] | IC50 (MV4-11 cells) | Kinase specificty: S(10)-386 panel ([1]; panel of 386 distinct kinases)
CC(C)(C)c1cc(NC(=O)Nc2ccc(-c3cnc(N)c(CO)c3)cc2)no1 [Example 8, 1-(4-(6-amino-5-(hydroxymethyl)pyridin-3-yl)phenyl)-3-(5-tert-butylisoxazol-3-yl)urea] | 1 to 10 nM | ≤ 10 nM | 1 to 10 nM | A (A≦0.1) | > 500 nM | –
CC(C)(C)c1cc(NC(=O)Nc2ccc(-c3cnc4c(c3)CCC(=O)N4)cc2)no1 [Example 9, 1-(5-tert-butylisoxazol-3-yl)-3-(4-(7-oxo-5,6,7,8-tetrahydro-1,8-naphthyridin-3-yl)phenyl)urea] | 1 to 10 nM | ≤ 10 nM | 1 to 10 nM | A (A≦0.1) | 10 to 100 nM | –
Cc1cc(N)nc(C)c1-c1ccc(NC(=O)Nc2cc(C(C)(C)C)on2)cc1 [Example 10, 1-(4-(6-amino-2,4-dimethylpyridin-3-yl)phenyl)-3-(5-tert-butylisoxazol-3-yl)urea] | 1 to 10 nM | ≤ 10 nM | 1 to 10 nM | A (A≦0.1) | 100 to 500 nM | –
CC(C)(C)c1cc(NC(=O)Nc2ccc(-c3ccc(N)nc3)c(F)c2)no1 [Example 11, 1-(4-(6-aminopyridin-3-yl)-3-fluorophenyl)-3-(5-tert-butylisoxazol-3-yl)urea] | ≤ 1 nM | ≤ 10 nM | 1 to 10 nM | A (A≦0.1) | 1 to 10 nM | –
CC(C)(C)c1cc(NC(=O)Nc2ccc(-c3cnc4c(c3)CCCN4)cc2)no1 [Example 12, 1-(5-tert-butylisoxazol-3-yl)-3-(4-(5,6,7,8-tetrahydro-1,8-naphthyridin-3-yl)phenyl)urea] | 1 to 10 nM | ≤ 10 nM | 1 to 10 nM | A (A≦0.1) | 1 to 10 nM | –
CC(C)(C)c1cc(NC(=O)Nc2ccc(-c3cnc(N)c(CN4CCOCC4)c3)cc2)no1 [Example 13, 1-(4-(6-amino-5-(morpholinomethyl)pyridin-3-yl)phenyl)-3-(5-tert-butylisoxazol-3-yl)urea] | 1 to 10 nM | 10 to 100 nM | 1 to 10 nM | B (0.1<B≦0.2 nM) | 10 to 100 nM | –
CC(C)(C)c1cc(NC(=O)Nc2ccc(-c3ccc(N)nc3)cc2F)no1 [Example 14, 1-[4-(6-aminopyridin-3-yl)-2-fluorophenyl]-3-(5-tert-butylisoxazol-3-yl)-urea] | ≤ 1 nM | ≤ 10 nM | ≤ 1 nM | B (0.1<B≦0.2 nM) | ≤ 1 nM | –
CC(C)(C)c1cc(NC(=O)Nc2ccc(-c3ccc(N)nc3)cc2Cl)no1 [Example 15, 1-(4-(6-aminopyridin-3-yl)-2-chlorophenyl)-3-(5-tert-butylisoxazol-3-yl)urea] | 1 to 10 nM | 10 to 100 nM | 1 to 10 nM | B (0.1<B≦0.2 nM) | 10 to 100 nM | –
CC(C)(C)c1cc(NC(=O)Nc2ccc(-c3ccc(N)nc3)c(Cl)c2)no1 [Example 16, 1-(4-(6-aminopyridin-3-yl)-3-chlorophenyl)-3-(5-tert-butylisoxazol-3-yl)urea] | ≤ 1 nM | 10 to 100 nM | ≤ 1 nM | B (0.1<B≦0.2 nM) | 1 to 10 nM | –
CC(C)(C)c1cc(NC(=O)Nc2ccc(-c3ccc(N)nc3)cn2)no1 [Example 17, 1-(6′-amino-[3,3′]bipyridinyl-6-yl)-3-(5-tert-butylisoxazol-3-yl)urea] | ≤ 1 nM | ≤ 10 nM | ≤ 1 nM | A (A≦0.1) | 1 to 10 nM | –
CC(C)(C)c1cc(NC(=O)Cc2ccc(-c3ccc(N)nc3)cc2)no1 [Example 18, 2-(4-(6-aminopyridin-3-yl)phenyl)-N-(5-tert-butylisoxazol-3-yl)acetamide] | ≤ 1 nM and 1 to 10 nM | ≤ 10 nM | 1 to 10 nM | A (A≦0.1) | ≤ 1 nM | A (A≦0.1)
CC(C)(C)c1cc(NC(=O)Nc2ccc(-c3ccc(N)nc3)s2)no1 [Example 19, 1-(5-(6-aminopyridin-3-yl)thiophen-2-yl)-3-(5-tert-butylisoxazol-3-yl)urea] | 1 to 10 nM | 10 to 100 nM | 1 to 10 nM | A (A≦0.1) | > 500 nM | –
CC(C)(C)c1cc(NC(=O)Nc2cc(F)c(-c3ccc(N)nc3)cc2F)no1 [Example 20, 1-(4-(6-aminopyridin-3-yl)-2,5-difluorophenyl)-3-(5-tert-butylisoxazol-3-yl)urea] | ≤ 1 nM | ≤ 10 nM | 1 to 10 nM | B (0.1<B≦0.2 nM) | 1 to 10 nM | –
CC(C)(C)c1cc(NC(=O)Nc2ccc(-c3cnc4c(c3)COCCN4)cc2)no1 [Example 21, 1-(5-tert-butylisoxazol-3-yl)-3-(4-(1,2,3,5-tetrahydropyrido[2,3-e][1,4]oxazepin-7-yl)phenyl)urea] | ≤ 1 nM | ≤ 10 nM | ≤ 1 nM | B (0.1<B≦0.2 nM) | 1 to 10 nM | –
CC(C)(C)c1cc(NC(=O)Nc2ccc(-c3cnc(N)c(COCCO)c3)cc2)no1 [Example 22, 1-(4-(6-amino-5-((2-hydroxyethoxy)methyl)pyridin-3-yl)phenyl)-3-(5-tert-butylisoxazol-3-yl)urea] | ≤ 1 nM | ≤ 10 nM | ≤ 1 nM | B (0.1<B≦0.2 nM) | ≤ 1 nM | –
Cc1nc(N)ccc1-c1ccc(NC(=O)Nc2cc(C(C)(C)C)on2)cc1 [Example 23, 1-(4-(6-amino-2-methylpyridin-3-yl)phenyl)-3-(5-tert-butylisoxazol-3-yl)urea] | ≤ 1 nM | ≤ 10 nM | 1 to 10 nM | A (A≦0.1) | 10 to 100 nM | –
Cc1cc(N)ncc1-c1ccc(NC(=O)Nc2cc(C(C)(C)C)on2)cc1 [Example 24, 1-(4-(6-amino-4-methylpyridin-3-yl)phenyl)-3-(5-tert-butylisoxazol-3-yl)urea] | ≤ 1 nM | ≤ 10 nM | 1 to 10 nM | A (A≦0.1) | 1 to 10 nM | –
